Laboratory results published in doi:10.1101/2025.04.18.649305v1 (biorxiv, 2025).

Target: NAMPT (recombinant human) (Homo sapiens, UniProt P43490)
Assay: biolayer interferometry
Format: binding

NAMPT (recombinant human), sequence (P43490 whole entry): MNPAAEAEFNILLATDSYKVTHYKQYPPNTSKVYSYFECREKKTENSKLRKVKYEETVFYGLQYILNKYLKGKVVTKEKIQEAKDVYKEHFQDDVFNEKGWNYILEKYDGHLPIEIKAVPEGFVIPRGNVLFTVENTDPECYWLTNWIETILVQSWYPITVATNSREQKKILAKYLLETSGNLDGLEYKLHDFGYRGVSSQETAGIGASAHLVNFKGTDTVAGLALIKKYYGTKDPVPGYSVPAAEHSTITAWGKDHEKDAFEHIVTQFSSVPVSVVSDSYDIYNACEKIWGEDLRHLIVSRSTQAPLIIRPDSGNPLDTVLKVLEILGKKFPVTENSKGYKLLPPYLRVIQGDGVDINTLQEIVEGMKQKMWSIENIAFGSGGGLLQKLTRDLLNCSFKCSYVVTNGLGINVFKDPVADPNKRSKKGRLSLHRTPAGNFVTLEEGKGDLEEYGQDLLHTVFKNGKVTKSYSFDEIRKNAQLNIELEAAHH

Kd: 106 µM
Structure (SMILES): O=C(CC(C(=O)O)c1c[nH]c2ccccc12)c1ccc(F)cc1F (racemic) [MA-5]
